Tests used:
[1] = test system: dorsal root ganglia (DRG) neurons; conditions: cited from earlier work
[2] = test system: dorsal root ganglia (DRG) neurons
Description: The nerve graft provides a supportive environment for axon growth. Removal of the nerve segment injures the peripheral axons of DRG neurons on one side (the “conditioning” lesion), whereas neurons on the opposite side are unaffected by the peripheral injury (“unconditioned”). At 2 weeks, a fluorescent tracer is injected 1 cm into the graft and is transported to the cell bodies of DRG neurons that are able to extend axons into the graft. The fluorescent tracer is taken up in the regenerated neurons only.
Sixty four adult male Sprague-Dawley rats (200-300 gm) were subjected to surgery under ketamine/xylazine anesthesia, as previously described (FIG. 1.) The cervical cord was exposed through a C3 laminectomy and dural opening. Using a pair of sharp jeweler's forceps, a well-defined 1 mm-deep injury was made in both posterior columns. A sciatic nerve segment harvested from the left hindlimb then was implanted at the injury site using 10-0 nylon sutures in the pia. The other end of the graft was left to lie freely under the skin.
Two weeks later, 5 μl of the retrograde tracer Fluorogold was placed into the nerve graft at a distance of 1 cm from the spinal cord. […] Rather, it is picked up solely by axons that have grown into the graft and is transported retrogradely in these axons.
Twenty four hours later, the animal was deeply anesthetized and perfused through the heart with 4% paraformaldehyde. The L5 dorsal root ganglia (DRG) were removed bilaterally, postfixed, incubated in 30% sucrose overnight, and quick frozen in Histo Prep (TM). Sections were cut at 10 μm with a cryostat, floated on pretreated glass slides, and stored at −80° C.
Animals were treated with intraperitoneal doses of (6S)-5-methyltetrahydrofolic acid ranging from 10 to 800 μg/kg, starting 3 days before the injury and given daily for 2 weeks.
Dorsal root ganglion sections were examined under a fluorescence microscope and the number of fluorescently labeled cells was counted (see FIG. 1.B). The same sections were then counterstained with cresyl violet to reveal the cell somas of all neurons in the DRG. Fluorescently labeled cells and total cells were counted in treated and control animals by an observer unaware of the treatment conditions. The percentage of labeled DRG cells in each animal was calculated. To determine neuronal numbers accurately, the method of Abercombie was used, in which only cells with visible nucleoli are counted.
The Wilcoxon rank-sum test and box-and-whiskers plots were used to compare the different groups.

[3] = regeneration of axons into peripheral nerve grafts after damage to the spinal cord

| SMILES | regeneration observed with folic acid ([1]; mean ± SEM, n=15, Iskandar, Ann Neurol. 2004) | increase in regenerative efficacy (folic acid comparison) [1, 3] | percentage of conditioned DRG neurons that were fluorescently labeled ([2]; 80 ug/kg daily, 3 days before injury to 2 weeks after, with conditioning peripheral nerve lesion, mean ± SEM, n=13) | mean neurons per ganglion regenerating, treatment combined with peripheral injury ([2]; 80 ug/kg, conditioned DRG) | spinal regeneration, conditioned animals compared with controls, highest dose ([2]; 800 ug/kg, conditioned) | spinal regeneration, unconditioned group, highest dose ([2]; 800 ug/kg, unconditioned) | regeneration in unconditioned DRG in treated animals (FIG. 2) ([2]; 10-400 g/kg as printed, intraperitoneal daily, all treated groups except 800 ug/kg) | mean labeled neurons per ganglion, unconditioned DRG ([2]; 80 N-g/kg intraperitoneal daily, from 3 days before injury for 2 weeks, absence of peripheral nerve injury, n=13) | percentage of labeled unconditioned DRG neurons ([2]; 80 N-g/kg intraperitoneal daily, absence of peripheral nerve injury, mean ± SEM, n=13) | regeneration of conditioned DRG at doses higher or lower than 80 ug/kg ([2]; conditioned, compared with the 80 ug/kg dose) | axons per ganglion regenerating, treatment without peripheral nerve injury ([2]; optimal dose of 80 ug/kg, unconditioned) | increase in regenerative efficacy [2, 3] |
| --- | --- | --- | --- | --- | --- | --- | --- | --- | --- | --- | --- | --- |
| Nc1nc2ncc(CNc3ccc(C(=O)N[C@@H](CCC(=O)O)C(=O)O)cc3)nc2c(=O)[nH]1 [folic acid] | 16.26%±1.12 | approximately 16% |  |  |  |  |  |  |  |  |  |  |
| CN1c2c(nc(N)[nH]c2=O)NC[C@@H]1CNc1ccc(C(=O)N[C@@H](CCC(=O)O)C(=O)O)cc1 [(6S)-5-methyltetrahydrofolic acid] |  |  | 30.68%±2.97 | 980 neurons per ganglion | decreased regeneration | no evidence of spinal regeneration | Measurable regeneration | 320 labeled neurons per ganglion | 10.25%±2.30 | less effective | approximately 319 axons per ganglion | ≥ 30% |
